Values of other authors, collected in patent US8778989B2, “Cosmetic composition comprising a lipid fraction from vegetable source and anticrystaling agent” (Natura Cosmeticos S.A., priority 2004, dated 2014).
Like-named read-outs stand apart in the source and are kept apart here.

SMILES	Relative Velocity of Oxidation of Fatty Acids (T = 20° C.)	Relative Velocity of Oxidation of Fatty Acids (T = 37° C.)	Relative Velocity of Oxidation of Fatty Acids (T = 100° C.)	oxidation rate relative to oleic acid (as fast as oleic acid)
CCCCC/C=C\C/C=C\CCCCCCCC(=O)O [Linoleic, 9,12-linoleic acid]	48	42	64	15 times
CCCCCCCC/C=C\CCCCCCCC(=O)O [Oleic, oleic acid]	4	–	6	–
CCCCCCCCCCCCCCCCCC(=O)O [Stearic]	–	–	0.6	–
